Data as given in PMC5908295 (Oncotarget, 2018).

Assays:
MV-4-11 xenograft = assay: MV-4-11 xenograft, SEL24-B489 and AraC alone or combined; type: in vivo, mice; settings: MV-4-11, AraC alone 50 mg/kg three times weekly IP
Source text: All animals were handled in strict accordance with good animal practice as defined by the relevant national and local animal welfare bodies. SCID and SCID/beige C.B-17 mice were provided by Harlan Laboratories or Charles River Laboratories, and were maintained in pathogen free conditions. For the xenograft experiments, age-matched (9-11 weeks old) females were used. 5×10^6 of MV-4-11 or MOLM-16 cells were suspended in a mixture (1:1, v:v) of PBS with Matrigel (BD Biosciences,) and injected subcutaneously (sc), in a total volume of 100 μL, above the groin on the right hind limb. For MOLM-13 and KG-1 cells, a mixture (3:1, v:v) of PBS and Matrigel HC (BD Bioscience,) was used to inject 5 × 10^6 of cell per mouse subcutaneously (sc), in a total volume of 100 μL. When tumors reached 100-130 mm^3, mice were randomized into uniform groups (6-9 mice per group) and subsequently administered the compound. […] At the end of the experiment, mice were anesthetized with isofluran and blood samples for total cell counts and biochemistry were obtained by retro-orbital bleeding. […] 5×10^6 cells suspended in a mixture (3:1, v:v) of PBS and Matrigel were injected as described above. […] Tumor volume was monitored every second day and calculated using the formula: TV = (a^2×b)/2, where “a” is the short axis in millimeters, and “b” is the long axis in millimeters. Body weight was assessed every day.

[1] = Blood biochemistry in mice with MV-4-11 tumors; type: in vivo; settings: Cytarabine 50 mg/kg, treatment day 15
Source text: All animals were handled in strict accordance with good animal practice as defined by the relevant national and local animal welfare bodies. SCID and SCID/beige C.B-17 mice were provided by Harlan Laboratories or Charles River Laboratories, and were maintained in pathogen free conditions. For the xenograft experiments, age-matched (9-11 weeks old) females were used. 5×10^6 of MV-4-11 or MOLM-16 cells were suspended in a mixture (1:1, v:v) of PBS with Matrigel (BD Biosciences,) and injected subcutaneously (sc), in a total volume of 100 μL, above the groin on the right hind limb. For MOLM-13 and KG-1 cells, a mixture (3:1, v:v) of PBS and Matrigel HC (BD Bioscience,) was used to inject 5 × 10^6 of cell per mouse subcutaneously (sc), in a total volume of 100 μL. When tumors reached 100-130 mm^3, mice were randomized into uniform groups (6-9 mice per group) and subsequently administered the compound. […] At the end of the experiment, mice were anesthetized with isofluran and blood samples for total cell counts and biochemistry were obtained by retro-orbital bleeding. […] 5×10^6 cells suspended in a mixture (3:1, v:v) of PBS and Matrigel were injected as described above. When the tumor volume reached ~120 mm^3, mice were randomized into uniform groups (5 mice per group) and the compound then administered. […] Tumor volume was monitored every second day and calculated using the formula: TV = (a^2×b)/2, where “a” is the short axis in millimeters, and “b” is the long axis in millimeters. Body weight was assessed every day.
Supplementary Table 9: Related to Figure 5C. […] The assessment of
was performed on treatment day 15.
AST – Aspartate aminotransferase, ALT – Alanine transaminase, ALP – alkaline phosphatase, UREA – blood urea nitrogen,
CREA – Creatinine, CK – Creatine kinase, TP- total protein; ALB – Albumin. […]

[2] = Total blood cell counts in mice with MV-4-11 tumors; settings: Cytarabine 50 mg/kg, treatment day 15
Source text: All animals were handled in strict accordance with good animal practice as defined by the relevant national and local animal welfare bodies. SCID and SCID/beige C.B-17 mice were provided by Harlan Laboratories or Charles River Laboratories, and were maintained in pathogen free conditions. For the xenograft experiments, age-matched (9-11 weeks old) females were used. 5×10^6 of MV-4-11 or MOLM-16 cells were suspended in a mixture (1:1, v:v) of PBS with Matrigel (BD Biosciences,) and injected subcutaneously (sc), in a total volume of 100 μL, above the groin on the right hind limb. For MOLM-13 and KG-1 cells, a mixture (3:1, v:v) of PBS and Matrigel HC (BD Bioscience,) was used to inject 5 × 10^6 of cell per mouse subcutaneously (sc), in a total volume of 100 μL. When tumors reached 100-130 mm^3, mice were randomized into uniform groups (6-9 mice per group) and subsequently administered the compound. […] At the end of the experiment, mice were anesthetized with isofluran and blood samples for total cell counts and biochemistry were obtained by retro-orbital bleeding. […] 5×10^6 cells suspended in a mixture (3:1, v:v) of PBS and Matrigel were injected as described above. When the tumor volume reached ~120 mm^3, mice were randomized into uniform groups (5 mice per group) and the compound then administered. […] Tumor volume was monitored every second day and calculated using the formula: TV = (a^2×b)/2, where “a” is the short axis in millimeters, and “b” is the long axis in millimeters. Body weight was assessed every day. […]
Supplementary Table 10: Related to Figure 5C. […] The assessment total
performed on treatment day 15.
RBC – red blood cells, HGB – hemoglobin, HCT – hematocrit, WBC – white blood cells, LYMPH – lymphocytes, MONO
– monocytes, GRA – granulocytes, PLT – platelet, MPV – mean platelet volume.

MV-4-11 = assay: MTS viability assay, 72 h; settings: Homo sapiens, MV4-11, 72 h
Procedure: (§1) On the same day, 50 μL of medium containing tested inhibitor was added to the wells. Each compound was tested at 8 concentrations, in triplicates. As a negative control, the medium containing 0.1% DMSO was used. […] Staurosporine was used at 10 μM as a positive control. One the day of drug addition, basal signal from untreated cells was measured from in triplicate to determine time zero (T0). […] GI50 and LC50 values were extrapolated from a variable (four-parameter) dose-response curve fitted in GraphPad Prism.

MOLM-13 = assay: MTS viability assay, 72 h; settings: Homo sapiens, MOLM-13, 72 h
Procedure: (§2) 15-25 ×10^3 of MV-4-11, MOLM-13, MOLM-14, MOLM-16, KG-1, Eol-1, SKM-1, PL-21, GDM-1, SKNO-1, RS4;11, Kasumi-3 and Kasumi-6 cells were seeded in 150 μL of culture medium onto individual wells in a 96 well plates, in triplicates. On the same day, 50 μL of medium containing tested inhibitor was added to the wells. Each compound was tested at 8 concentrations, in triplicates. As a negative control, the medium containing 0.1% DMSO was used. […] Staurosporine was used at 10 μM as a positive control. One the day of drug addition, basal signal from untreated cells was measured from in triplicate to determine time zero (T0). […] GI50 and LC50 values were extrapolated from a variable (four-parameter) dose-response curve fitted in GraphPad Prism.

MOLM-14 = assay: MTS viability assay, 72 h; settings: Homo sapiens, MOLM-14, 72 h
Procedure: as §2

MOLM-16 = assay: MTS viability assay, 72 h; settings: MOLM16, 72 h
Procedure: as §1

KG-1 = assay: MTS viability assay, 72 h; settings: Homo sapiens, KG-1, 72 h
Procedure: as §2

EOL-1 = assay: MTS viability assay, 72 h; settings: Homo sapiens, EOL1, 72 h
Procedure: as §2

KASUMI-3 = assay: MTS viability assay, 72 h; settings: Kasumi-3, 72 h
Procedure: as §2

KASUMI-6 = assay: MTS viability assay, 72 h; settings: 72 h
Procedure: as §2

OCI-AML-2 = assay: MTS viability assay, 72 h; settings: Homo sapiens, OCI-AML2, 72 h
Procedure: as §1

OCI-AML-3 = assay: MTS viability assay, 72 h; settings: Homo sapiens, OCI-AML-3, 72 h
Procedure: as §2

MOLM-6 = assay: MTS viability assay, 72 h; settings: 72 h
Procedure: as §2

RS4;11 = assay: MTS viability assay, 72 h; settings: Homo sapiens, RS4-11, 72 h
Procedure: as §2

SKNO-1 = assay: MTS viability assay, 72 h; settings: SKNO-1, 72 h
Procedure: as §2

SKM-1 = assay: MTS viability assay, 72 h; settings: Homo sapiens, SKM-1, 72 h
Procedure: as §1

SIG-M5 = assay: MTS viability assay, 72 h; settings: Homo sapiens, SIG-M5, 72 h
Procedure: as §1

GDM-1 = assay: MTS viability assay, 72 h; settings: Homo sapiens, GDM-1, 72 h
Procedure: as §2

PL-21 = assay: MTS viability assay, 72 h; settings: PL-21, 72 h
Procedure: as §2

[3] = set-up: method as in PMID 21628411, PMID 24953177; settings: off-target inhibition of the potassium channel hERG; cited from earlier work

Nc1ccn([C@@H]2O[C@H](CO)[C@@H](O)[C@@H]2O)c(=O)n1 [Cytarabine]
decrease of tumor growth (MV-4-11 xenograft): 66%
ALB [1]: 4.6 g/dL
ALP [1]: 87.6 U/L
ALT [1]: 153.7 U/L
AST [1]: 247.1 U/L
CK [1]: 1709 U/L
CREA [1]: 0.37 mg/dL
K [1]: 5.4 mM
TP [1]: 4.6 g/dL
UREA [1]: 5.9 mmol/L
GRA [2]: 51.9%
HCT [2]: 49.5%
HGB [2]: 14.4 g/dL
LYMPH [2]: 37.7%
MONO [2]: 10.3%
MPV [2]: 5.9 μm3
PLT [2]: 1098 103/mm3
RBC [2]: 9.9 106/mm3
WBC [2]: 5.0 103/mm3
GI50 (MV-4-11): 340 nM
CC50 (MV-4-11; read-out: LC50): > 10000 nM
GI50 (MOLM-13): < 5 nM
CC50 (MOLM-13; read-out: LC50): > 10000 nM
GI50 (MOLM-14): 48 nM
CC50 (MOLM-14; read-out: LC50): > 10000 nM
GI50 (MOLM-16): 22 nM
CC50 (MOLM-16; read-out: LC50): > 10000 nM
GI50 (KG-1): 12 nM
CC50 (KG-1; read-out: LC50): 71 nM
GI50 (EOL-1): 24 nM
GI50 (KASUMI-3): < 5 nM
CC50 (KASUMI-3; read-out: LC50): 28 nM
GI50 (KASUMI-6): < 5 nM
GI50 (OCI-AML-2): < 5 nM
CC50 (OCI-AML-2; read-out: LC50): 21 nM
GI50 (OCI-AML-3): 81 nM
CC50 (OCI-AML-3; read-out: LC50): > 10000 nM
GI50 (MOLM-6): 30 nM
CC50 (MOLM-6; read-out: LC50): > 10000 nM
GI50 (RS4;11): < 5 nM
CC50 (RS4;11; read-out: LC50): 23 nM
GI50 (SKNO-1): < 5 nM
GI50 (SKM-1): 28 nM
CC50 (SKM-1; read-out: LC50): 6460 nM
GI50 (SIG-M5): 46 nM
CC50 (SIG-M5; read-out: LC50): > 10000 nM
GI50 (GDM-1): < 5 nM
GI50 (PL-21): < 5 nM

CN1CCC(CNc2ccc3ncc(-c4cccc(OC(F)(F)F)c4)n3n2)CC1 [SGI-1776]
outcome of clinical testing [3]: failed clinical testing due to a narrow therapeutic window and cardiac toxicity
